Target: estrogen receptor alpha (ESR1) (Homo sapiens, UniProt P03372)
Test: cell-based
Conditions: for ER-alpha MCF7 HCS Sinf: MCF7 breast cancer cells, 4 hours, plateau of the maximal effect, DMSO and Fulvestrant define 0% and 100% changes in ESR1

Sequence of estrogen receptor alpha (ESR1) (P03372 whole entry): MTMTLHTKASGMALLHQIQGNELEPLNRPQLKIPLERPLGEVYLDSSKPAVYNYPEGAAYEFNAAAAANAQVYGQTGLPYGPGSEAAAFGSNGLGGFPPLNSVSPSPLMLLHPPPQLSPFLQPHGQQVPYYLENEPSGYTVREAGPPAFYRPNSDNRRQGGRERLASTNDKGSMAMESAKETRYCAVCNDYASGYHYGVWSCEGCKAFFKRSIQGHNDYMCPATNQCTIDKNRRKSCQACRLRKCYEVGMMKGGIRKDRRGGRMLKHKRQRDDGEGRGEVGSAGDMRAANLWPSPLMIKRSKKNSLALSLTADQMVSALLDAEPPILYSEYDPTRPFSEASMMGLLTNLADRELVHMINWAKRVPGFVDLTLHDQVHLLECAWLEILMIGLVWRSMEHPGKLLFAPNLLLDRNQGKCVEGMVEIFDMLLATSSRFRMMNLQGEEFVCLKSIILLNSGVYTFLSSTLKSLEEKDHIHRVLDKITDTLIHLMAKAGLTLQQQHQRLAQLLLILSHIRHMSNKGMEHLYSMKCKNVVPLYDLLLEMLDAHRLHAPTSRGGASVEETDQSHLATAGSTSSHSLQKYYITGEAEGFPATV

With `Oc1ccc2c(c1)O[C@H](c1ccc(OCCN3CC(CF)C3)cc1)C1=C2CCOc2ccc(O)cc21` [Example 77, (R)-8-(4-(2-(3-(fluoromethyl)azetidin-1-yl)ethoxy)phenyl)-2,8-dihydro-1H-benzo[2,3]oxepino[4,5-c]chromene-6,11-diol] the EC50 was 9.59 nM and the “ER-alpha MCF7 HCS Sinf” value was −84.5%.

In the case of `Oc1ccc2c(c1)O[C@@H](c1ccc(OCCN3CC(CF)C3)cc1)C1=C2CCOc2ccc(O)cc21` [Example 78, (S)-8-(4-(2-(3-(fluoromethyl)azetidin-1-yl)ethoxy)phenyl)-2,8-dihydro-1H-benzo[2,3]oxepino[4,5-c]chromene-6,11-diol], the EC50 is reported as 0.611 nM and the “ER-alpha MCF7 HCS Sinf” value is reported as −90.0%.

With `CS(=O)(=O)c1ccc(-c2ccc3c(F)c(O)ccc3c2Oc2ccc(OCCN3CC[C@@H](CF)C3)cc2)cc1` [Example 79, (R)-1-fluoro-5-(4-(2-(3-(fluoromethyl)pyrrolidin-1-yl)ethoxy)phenoxy)-6-(4-(methylsulfonyl)phenyl) naphthalen-2-ol] the EC50 was 0.072 nM and the “ER-alpha MCF7 HCS Sinf” value was −89.6%.

For `CC/C(=C(/c1ccc(OCCN2CC(CF)C2)cc1)c1ccc2[nH]ncc2c1)c1ccc(F)cc1Cl` [Example 82, 5-[(E)-2-(2-chloro-4-fluoro-phenyl)-1-[4-[2-[3-(fluoromethyl)azetidin-1-yl]ethoxy]phenyl]but-1-enyl]-1H-indazole], the EC50 was 0.0225 nM and the “ER-alpha MCF7 HCS Sinf” value was −96.9%.

From patent US9845291B2, “Estrogen receptor modulators and uses thereof” (Genentech, Inc., priority 2014, dated 2017)
